Data from patent publication US11713335B2, “Aminocoumarin compounds and methods of their use” (President and Fellows of Harvard College, priority 2018, dated 2023).
Converted amounts (≈) assume the structure as drawn. Like-named read-outs stand apart in the source and are kept apart here.

Legend:
Type in all cases: cell-based
[1] = test system: E. coli 25922; assay: Minimal inhibitory concentration, E. coli 25922; conditions: 16 hour minimal inhibitory concentration at 37° C., read-out: MIC (μM) E. coli 25922
Experimental: (§1) General Procedure for Determination of Minimal Inhibitory Concentrations
(§2) Overnight cultures (5 mL) of bacterial strains were grown in LB media or TSA media (for S. aureus) at 37° C. and with shaking at 220 rpm until saturation. The overnight culture was diluted serially 1:100 (50 μL in 5 mL sterile media) and then 1:100 (250 μL in 25 mL sterile media). The 25 mL of diluted culture was then dispensed to a sterile 96 well plate (Corning #3370). 198 μL of culture were dispensed into row A and 100 μL of this culture were dispensed into rows B-H. Aminocoumarin compound (DMSO stock) were added to the first row and then the row was mixed by pipetting. 100 μL of culture from row A were transferred to row B and the serial dilution continued until the final 100 μL from row H were discarded. The plate was incubated without shaking in a 37° C. for 16 hours and then read by visible light spectrophotometer (Molecular Devices) at 600 nm. The minimal inhibitory concentration (MIC) was determined as the lowest concentration of compound concentration that inhibited the growth of bacteria.
(§3) The compounds of the invention were assessed for activities against the pathogens S. aureus RN4220 and MW2, E. cloacae 13047, A. baumannii 19606, K. pneumoniae 700721, E. coli MC4100, 25922. All activities are reported in micromolar (uM) and are 16 hour minimal inhibitory concentrations at 37° C. The assay is detailed in Example 11 and is titled “General Procedure for Determination of Minimal Inhibitory Concentrations.”

[2] = test system: E. coli MC4100; assay: Minimal inhibitory concentration, E. coli MC4100; conditions: Escherichia coli, 16 hour minimal inhibitory concentration at 37° C., read-out: MIC (μM) E. coli MC4100 ara+
Experimental: as §1, §2, §3

[3] = test system: S. aureus MW2; assay: Minimal inhibitory concentration, S. aureus MW2; conditions: Staphylococcus aureus, MRSA, 16 h, read-out: MIC (μM) S. aureus MW2 (MRSA)
Experimental: as §1, §2, §3

[4] = test system: K. pneumoniae 700721; assay: Minimal inhibitory concentration, K. pneumoniae 700721; conditions: Klebsiella pneumoniae, 700721; 16 hour minimal inhibitory concentration at 37° C.; read-out: MIC (μM) K. pneumoniae 700721
Experimental: as §1, §2, §3

[5] = test system: E. cloacae 13047; assay: Minimal inhibitory concentration, E. cloacae 13047; conditions: Enterobacter cloacae, 13047; 16 hour minimal inhibitory concentration at 37° C.; read-out: MIC (μM) E. cloacae 13047
Experimental: as §1, §2, §3

[6] = test system: S. aureus RN4220; assay: Minimal inhibitory concentration, S. aureus RN4220; conditions: Staphylococcus aureus, RN4220, 16 h, 16 hour minimal inhibitory concentration at 37° C.; read-out: MIC (μM) S. aureus RN4220
Experimental: as §1, §2, §3

[7] = test system: A. baumannii 19606; assay: Minimal inhibitory concentration, A. baumannii 19606; conditions: 16 hour minimal inhibitory concentration at 37° C., read-out: MIC (μM) A. baumannii 19606
Experimental: as §1, §2, §3

[8] = 16 hour minimal inhibitory concentration at 37° C.
[9] = Acinetobacter baumannii, 19606, 16 h

| Structure (SMILES) | MIC ([1]; Escherichia coli, 25922) | MIC ([2]; MC4100) | MIC [3] | MIC [4] | MIC [5] | MIC [6] | MIC ([7]; Acinetobacter baumannii, 19606) | MIC ([1]; Escherichia coli, 25922, 16 h) | MIC ([2]; MC4100, 16 h) | MIC [3, 8] | MIC [7, 9] |
| --- | --- | --- | --- | --- | --- | --- | --- | --- | --- | --- | --- |
| CO[C@@H]1[C@@H](OC(N)=O)[C@@H](O)[C@H](Oc2ccc3c(OCCO)c(NC(=O)c4ccc(O)c(CC=C(C)C)c4)c(=O)oc3c2C)OC1(C)C [Compound 215] | > 200 µM | > 200 µM | 19 µM (≈ 12.5 µg/mL) | > 100 µM | > 100 µM | 38 µM (≈ 25 µg/mL) | > 50 µM |  |  |  |  |
| CO[C@@H]1[C@@H](OC(N)=O)[C@@H](O)[C@H](Oc2ccc3c(OCCCO)c(NC(=O)c4ccc(O)c(CC=C(C)C)c4)c(=O)oc3c2C)OC1(C)C [Compound 216] |  |  |  | > 100 µM | > 100 µM | 19 µM (≈ 12.7 µg/mL) |  | > 200 µM | > 200 µM | 19 µM (≈ 12.7 µg/mL) | > 50 µM |
| CO[C@@H]1[C@@H](OC(N)=O)[C@@H](O)[C@H](Oc2ccc3c(OCC4CO4)c(NC(=O)c4ccc(O)c(CC=C(C)C)c4)c(=O)oc3c2C)OC1(C)C (stereo partly drawn) [Compound 217] |  |  |  | > 100 µM | > 100 µM | 19 µM (≈ 12.7 µg/mL) |  | > 200 µM | > 200 µM | 9 µM (≈ 6.02 µg/mL) | > 50 µM |
| CO[C@@H]1[C@@H](OC(N)=O)[C@@H](O)[C@H](Oc2ccc3c(O)c(NC(=O)c4cccc(Nc5ccccc5)c4)c(=O)oc3c2C)OC1(C)C [Compound 218] |  |  |  | > 100 µM | > 100 µM | 10 µM (≈ 6.2 µg/mL) |  | 161 µM (≈ 99.8 µg/mL) | 80 µM (≈ 49.6 µg/mL) | 10 µM (≈ 6.2 µg/mL) | > 50 µM |
| CO[C@@H]1[C@@H](OC(N)=O)[C@@H](O)[C@H](Oc2ccc3c(O)c(NC(=O)c4cccc(-c5ccc(F)c(F)c5)c4)c(=O)oc3c2C)OC1(C)C [Compound 219] |  |  |  | 78 µM (≈ 50 µg/mL) | > 100 µM | 5 µM (≈ 3.2 µg/mL) |  | 20 µM (≈ 12.8 µg/mL) | 39 µM (≈ 25 µg/mL) | 5 µM (≈ 3.2 µg/mL) | > 50 µM |
| CO[C@@H]1[C@@H](OC(N)=O)[C@@H](O)[C@H](Oc2ccc3c(O)c(NC(=O)c4cccc(Oc5ccccc5C)c4)c(=O)oc3c2C)OC1(C)C [Compound 220] |  |  |  | > 100 µM | > 100 µM | 10 µM (≈ 6.35 µg/mL) |  | 160 µM (≈ 102 µg/mL) | 158 µM (≈ 100 µg/mL) | 10 µM (≈ 6.35 µg/mL) | > 50 µM |
| CO[C@@H]1[C@@H](OC(N)=O)[C@@H](O)[C@H](Oc2ccc3c(O)c(NC(=O)c4cccc(Oc5ccc(C)cc5)c4)c(=O)oc3c2C)OC1(C)C [Compound 221] |  |  |  | > 100 µM | > 100 µM | 10 µM (≈ 6.35 µg/mL) |  | 5 µM (≈ 3.17 µg/mL) | 10 µM (≈ 6.35 µg/mL) | 10 µM (≈ 6.35 µg/mL) | > 50 µM |
| CO[C@@H]1[C@@H](OC(N)=O)[C@@H](O)[C@H](Oc2ccc3c(O)c(NC(=O)c4cccc(-c5ccc(Cl)c(Cl)c5)c4)c(=O)oc3c2C)OC1(C)C [Compound 222] |  |  |  | > 100 µM | > 100 µM | 0.46 µM (≈ 0.31 µg/mL) |  | 37 µM (≈ 24.9 µg/mL) | 37 µM (≈ 24.9 µg/mL) | 0.23 µM (≈ 0.155 µg/mL) | 9 µM (≈ 6.06 µg/mL) |
| CCCOCCOCC#Cc1ccc(C(=O)Nc2c(O)c3ccc(O[C@@H]4OC(C)(C)[C@H](OC)[C@@H](OC(N)=O)[C@H]4O)c(C)c3oc2=O)cc1 [Compound 226] |  |  |  | > 100 µM | > 100 µM | > 100 µM |  | > 200 µM | > 200 µM | > 100 µM | > 50 µM |
| CO[C@@H]1[C@@H](OC(N)=O)[C@@H](O)[C@H](Oc2ccc3c(O)c(NC(=O)c4ccc(I)c(-c5ccccc5)c4)c(=O)oc3c2C)OC1(C)C [Compound 227] |  |  |  | 34 µM (≈ 24.8 µg/mL) | > 100 µM | 4 µM (≈ 2.92 µg/mL) |  | 34 µM (≈ 24.8 µg/mL) | 9 µM (≈ 6.57 µg/mL) | 4 µM (≈ 2.92 µg/mL) | > 50 µM |
| Cc1c(O)ccc2c(O)c(NC(=O)c3ccc(I)c(-c4ccccc4)c3)c(=O)oc12 [Compound 228] |  |  |  | > 100 µM | > 100 µM | 97 µM (≈ 49.8 µg/mL) |  | > 200 µM | > 200 µM | 97 µM (≈ 49.8 µg/mL) | > 50 µM |
| C#Cc1cccc(C(=O)Nc2c(O)c3ccc(O[C@@H]4OC(C)(C)[C@H](OC)[C@@H](OC(N)=O)[C@H]4O)c(C)c3oc2=O)c1 [Compound 229] |  |  |  | > 100 µM | > 100 µM | 90 µM (≈ 49.7 µg/mL) |  | > 200 µM | > 200 µM | 90 µM (≈ 49.7 µg/mL) | > 50 µM |
| C#CCOc1cccc(C(=O)Nc2c(O)c3ccc(O[C@@H]4OC(C)(C)[C@H](OC)[C@@H](OC(N)=O)[C@H]4O)c(C)c3oc2=O)c1 [Compound 230] |  |  |  | > 100 µM | > 100 µM | 86 µM (≈ 50.1 µg/mL) |  | 172 µM (≈ 100 µg/mL) | 86 µM (≈ 50.1 µg/mL) | 86 µM (≈ 50.1 µg/mL) | > 50 µM |
| CO[C@@H]1[C@@H](OC(N)=O)[C@@H](O)[C@H](Oc2ccc3c(O)c(NC(=O)c4ccccc4Br)c(=O)oc3c2C)OC1(C)C [Compound 231] |  |  |  | > 100 µM | > 100 µM | > 100 µM |  | > 200 µM | > 200 µM | > 100 µM | > 50 µM |
| CO[C@@H]1[C@@H](OC(N)=O)[C@@H](O)[C@H](Oc2ccc3c(O)c(NC(=O)c4cccc(Br)c4)c(=O)oc3c2C)OC1(C)C [Compound 232] |  |  |  | > 100 µM | > 100 µM | 82 µM (≈ 49.8 µg/mL) |  | > 200 µM | > 200 µM | 82 µM (≈ 49.8 µg/mL) | > 50 µM |
| CO[C@@H]1[C@@H](OC(N)=O)[C@@H](O)[C@H](Oc2ccc3c(O)c(NC(=O)c4ccc(C(=O)c5ccccc5)cc4)c(=O)oc3c2C)OC1(C)C [Compound 233] |  |  |  | > 100 µM | > 100 µM | 40 µM (≈ 25.3 µg/mL) |  | > 200 µM | > 200 µM | 40 µM (≈ 25.3 µg/mL) | > 50 µM |
| CO[C@@H]1[C@@H](OC(N)=O)[C@@H](O)[C@H](Oc2ccc3c(O)c(NC(=O)c4cccc(-c5cccc(Br)c5)c4)c(=O)oc3c2C)OC1(C)C [Compound 234] |  |  |  | > 100 µM | > 100 µM | 0.73 µM (≈ 0.499 µg/mL) |  | 18 µM (≈ 12.3 µg/mL) | 18 µM (≈ 12.3 µg/mL) | 0.46 µM (≈ 0.314 µg/mL) | 18 µM (≈ 12.3 µg/mL) |
| CO[C@@H]1[C@@H](OC(N)=O)[C@@H](O)[C@H](Oc2ccc3c(O)c(NC(=O)c4cccc(-c5ccccc5Br)c4)c(=O)oc3c2C)OC1(C)C [Compound 235] |  |  |  | > 100 µM | > 100 µM | 9 µM (≈ 6.15 µg/mL) |  | 18 µM (≈ 12.3 µg/mL) | 18 µM (≈ 12.3 µg/mL) | 5 µM (≈ 3.42 µg/mL) | > 50 µM |
